The structures appear in SMILES notation. Counter-ions that a name gives are not always drawn. Some results are limits rather than exact numbers.

As usually defined, the IC50 is the point on the concentration scale where inhibition reaches its midpoint. As usually defined, the bioavailability is dose-corrected exposure relative to a reference, in per cent.

In one data set the target is T1, p70 S6K (Homo sapiens, UniProt P23443).
T1 construct: endogenous in cells; host or cells: HCT 116 human colon carcinoma xenograft tumours in athymic nude mice
The data set is described as follows: Determination of p70 S6K In Vivo Target Inhibition (HCT 116). Further details: species or system athymic nude mice. The settings on record: HCT 116 xenograft, PO; potency based on plasma exposure; phosphorylation of S6RP serine 240/244. The procedure: HCT 116 human colon carcinoma cells* (5×10^6) are subcutaneously implanted into the flank of athymic nude mice in 0.2 mL of matrigel. Two weeks post-implantation, mice are dosed PO according to a time course, single dose/single time point, or dose response protocol for the determination of TMED50 (threshold minimum effective dose). Tumors are flash frozen at harvest and blood is collected for the determination of parent compound plasma exposure and the calculation of TMEC50 (threshold minimum effective concentration) in the case of dose response studies. Tumors or tissues are homogenized in XY Lysis buffer (10 μg/mL Leupeptin, 10 μg/mL Trypsin-Chymotrypsin Inhibitor, 10 μg/mL Tosyl phenylalanyl chloromethyl ketone (TPCK), 10 μg/mL Aprotinin, 60 mM Beta-Glycerol Phosphate, 1% Triton X100, 25 mM Tris pH 7.5, 2.5 mM Pyrophosphate, 150 mM NaCl, 2 mM p-tosyl-L-arginine methyl ester (TAME), 15 mM para-nitrophenyl phosphate (pNPP), 5 mM Benzamidine, 1 mM Na Vanadate, 10 mM NaF, 50 μg/mL phenylmethane sulofnyl fluoride (PMSF), 1 mM DTT, 15 mM EDTA pH 8.0, 5 mM EGTA pH 8.0, 1 μM Microcystin, 1 μM Okadaic Acid, and 1 Roche Complete protease inhibitor mini-tablet per 10 mL) using Lysing Matrix A tubes (MP Biomedicals, Solon, Ohio, cat# 6910-500) and a BIO101 Thermo Savant Fast Prep FP12. Lysates are aliquoted and either assayed immediately or stored at −80° C. for later testing. In Vivo Target Inhibition of p70 S6K is measured utilizing Meso Scale Discovery (Gaithersburg, Md.) ELISA technology to assess effects of the compound on phosphorylation of the serine 240/244 site of the downstream effector S6RP. Phosphorylation of p70 S6K(T389) and Akt(S473) is also assessed using this technology in a multiplex format. In summary, 20 μg of lysate is added to a carbon electrode 96-well plate pre-spotted with the appropriate capture antibodies. The protein of interest is probed using a ruthenium labeled detection antibody. Upon the passage of current over the electrode in the presence of read buffer containing the co-reactant TPA, electro-chemiluminescence results in the generation of light which is quantified and recorded using the MSD Sector 6000 instrument. For each study, percent inhibitions are calculated relative to the vehicle control group and ANOVA analysis is performed using the JMP software package for the determination of statistical significance. The following compounds were tested essentially as described above and have the following potencies based on plasma exposure.

The target of the next data set is T2, P70 S6 kinase (T412E) (Homo sapiens, UniProt P23443, T412E).
T2 construct: purchased Upstate USA, Inc. (Charlottesville, Va.)
Put plainly: Inhibition of p70S6 Kinase. The format is biochemical. As to conditions: 25 μM ATP, 5 nM enzyme, relative IC50. The procedure:
P70 S6 kinase (T412E) from Upstate USA, Inc. (Charlottesville, Va.) is preincubated with 10 concentrations of compound in a 15 μL volume for 30 min at room temperature in 96-well plates. PKA, PKC, MAPKAP-K1 Substrate from AnaSpec (San Jose, Calif.) and gamma ^33P-ATP from PerkinElmer (Waltham, Mass.) is added to initiate the reaction which is allowed to proceed for 60 minutes at room temperature in a final 25 μL volume under the following conditions: 10 mM HEPES pH 7.5, 10 mM MgCl2, 1.0 mM DTT, 0.082 mM EGTA, 0.005% TRITON X-100™, 25 μM, 25 μM ATP, 40 μCi/mL, 4 μM substrate, and 5 nM enzyme. Reactions are terminated with 75 μL 10% H3PO4 and 85 μL of quenched reaction mix is transferred to a phosphocellulose filter plate (Millipore #MAPHN0B50) and washed with 0.5% H3PO4 using a vacuum manifold. 100 μL of Microscint 20 (Packard #60113621) is added to each well and plates with liner are counted using a Wallac Beta Counter. Relative IC50 values are calculated by non-linear four parameter fitting.

For data set [1], the system named is HUVEC / neo NHDF co-culture cord formation. Put plainly: Angiogenesis Cord Formation Assay. The format is cell-based. As to conditions: Homo sapiens, 288 h. The procedure: Human neonatal dermal fibroblast cells (neo NHDF) are seeded into Parkard 96 well plate on the first day, and incubated in the 37° C. and 5% CO2 incubator. Human umbilical vein endothelial cells (HUVEC) are then plated on the top of neo NHDF cells. Starting the third day, the co-culture is treated with eight-dose series of the test compound (starting with 20 μM, 1:3 serial dilution) in the presence of 20 ng/mL vascular endothelial growth factor (VEGF). The compound and VEGF are replenished every two to three days. The assay is conducted over a 12 day period. Cells are fixed by cold 70% ethanol for 30 minutes on the 12th day and processed for anti human CD31 immunofluorescence. Cultures are incubated with mouse anti human CD31 antibody and then stained by goat anti mouse alexa 488 secondary antibody. Cells are also stained by Hoechst to visualize the nucleus. After the staining, the cord formation is captured and quantified using Cellomics Arrayscan® VTI high content image analysis platform adopting the tube formation BioApplication. Two parameters, the cord area and angiogenesis index, are used to calculate the relative potency of the test compound in this angiogenesis assay. The compounds of Examples 5 and 10 were tested and analyzed essentially as described above.

A further data set has as its system NCI-H460. Put plainly: Cell assay (Alamar Blue, 72 hours) NCI-H460. The format is cell-based. The settings on record: Homo sapiens. The procedure:
(§1) Cells are maintained, then typsinized and suspended in Dulbecco's modified Eagle's medium (DMEM_containing 10% fetal bovine serum (FBS), 25 mM 4-(2-hydroxyethyl)-1-piperazineethanesulfonic acid (HEPES), 1.0 mM Sodium Pyruvate and 0.1 mM Non Essential Amino Acids (NEAA). 1×10^3 HCT116 and 2×10^3 Cells may be seeded in 50 μL in 96 well plates and incubated in 5% CO2 at 37° C. overnight. Compounds are prepared at desired starting concentrations and serial diluted in DMSO. 4 μL of diluted compounds are transferred in 1 mL 10% FBS DMEM to make up 2× concentrations as added 50 μL to the 50 μL in the presence of cells for dosing. The plates are incubated at 37° C. in 5% CO2 for 72 hours. At the end of incubation period, 10 μL Alamar Blue is added and after 2 hours reaction the measurement is determined in CytoFluor at 530 nm excitation, 580 nm emission and Gain 45. The following compounds were tested in the following cell lines essentially as described above.
Background: Alamar Blue is a resazurin reagent that responds to reducing activity.

Another data set concerns PC3. The data set is described as follows: Cell assay (Alamar Blue, 72 hours) PC3. The format is cell-based. The settings on record: Homo sapiens, PC-3. The procedure: as §1
Another data set has as its system A549. The data set is described as follows: Cell assay (Alamar Blue, 72 hours) A549. As to conditions: Homo sapiens. The format is cell-based. The procedure:
as §1

The test system of a further data set is PANC-1. Put plainly: Cell assay (Alamar Blue, 72 hours) PANC-1. The format is cell-based. The settings on record: Homo sapiens. The procedure:
as §1

The nature of another data set: Oral bioavailability. The format is in vivo. The settings on record: rat, plasma; Sprague Dawley rats, 1 mg/kg (IV) or 10 mg/kg (oral gavage). The procedure: The bioavailability of compounds of the present invention may be measured by methods known to the skilled artisan. For example a compound of Formula I is administered to Sprague Dawley rats at doses of 1 mg/kg (IV) or 10 mg/kg (oral gavage) in a conventional formulation. An oral formulation may include a suspension (0.25% PS80, 1% HEC, 0.05% Antifoam in water) using milled compound of Formula I. Plasma samples are obtained and concentrations of the compound of Formula I are measured. The compound of Example 57 was evaluated in a method substantially similar to that described above and found to have an oral bioavailability of >100%.

The subject of another data set is A2780. Put plainly: Cell assay (Alamar Blue, 72 hours) A2780. As to conditions: Homo sapiens. The format is cell-based. The procedure:
as §1

The test system of another data set is U87MG. The data set is described as follows: Cell assay (Alamar Blue, 72 hours) U87MG. As to conditions: Homo sapiens, U-87 MG. The format is cell-based. The procedure:
as §1

In a further data set the test system is K562. Put plainly: Cell assay (Alamar Blue, 72 hours) K562. The format is cell-based. As to conditions: Homo sapiens. The procedure:
as §1

The next data set deals with Rat 13762. The data set is described as follows: Cell assay (Alamar Blue, 72 hours) Rat 13762. The format is cell-based. The procedure: as §1

T1 sequence (P23443 whole entry): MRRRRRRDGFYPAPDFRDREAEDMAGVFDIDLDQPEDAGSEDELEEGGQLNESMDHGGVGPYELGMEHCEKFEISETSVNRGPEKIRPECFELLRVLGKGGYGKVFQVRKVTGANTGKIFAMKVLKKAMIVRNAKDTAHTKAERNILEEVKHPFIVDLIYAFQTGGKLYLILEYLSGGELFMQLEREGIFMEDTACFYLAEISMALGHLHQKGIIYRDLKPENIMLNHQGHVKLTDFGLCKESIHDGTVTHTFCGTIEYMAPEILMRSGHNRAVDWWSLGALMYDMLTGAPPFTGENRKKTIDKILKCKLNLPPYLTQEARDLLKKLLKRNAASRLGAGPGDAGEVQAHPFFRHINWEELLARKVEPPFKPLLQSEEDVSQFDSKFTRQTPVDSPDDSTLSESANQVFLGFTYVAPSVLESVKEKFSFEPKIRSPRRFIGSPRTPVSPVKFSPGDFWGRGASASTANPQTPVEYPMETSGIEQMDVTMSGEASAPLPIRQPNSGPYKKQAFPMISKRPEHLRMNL
T2 sequence (P23443 whole entry T412E): as the sequence (P23443 whole entry) above, with T412E counted along it

Consider `Fc1ccc(-c2c[nH]c(C3CCN(c4ncnc5[nH]ccc45)CC3)n2)cc1C(F)(F)F` [Example 7, 4-{4-[4-(4-Fluoro-3-trifluoromethyl-phenyl)-1H-imidazol-2-yl]-piperidin-1-yl}-7H-pyrrolo[2,3-d]pyrimidine hydrochloride], for which the IC50 amounted to 1.92 µM on p70 S6K and 0.0103 µM against P70 S6 kinase (T412E).

In the case of `Fc1ccc(-c2cnc(C3CCN(c4ncnc5[nH]cnc45)CC3)[nH]2)cc1C(F)(F)F` [Example 8, 6-{4-[5-(4-Fluoro-3-trifluoromethyl-phenyl)-1H-imidazol-2-yl]-piperidin-1-yl}-9H-purine hydrochloride], the values for the IC50 at p70 S6K and at P70 S6 kinase (T412E) were 47.7 µM and 0.00758 µM, respectively.

Regarding `Cn1cc(-c2ccc(F)c(C(F)(F)F)c2)nc1C1CCN(c2ncnc3[nH]ncc23)CC1` [Example 10, 4-{4-[4-(4-Fluoro-3-trifluoromethyl-phenyl)-1-methyl-1H-imidazol-2-yl]-piperidin-1-yl}-1H-pyrazolo[3,4-d]pyrimidine hydrochloride], the results for the IC50 (on p70 S6K; in data set [1]; against P70 S6 kinase (T412E)) were 1.97 µM, 4.78 µM and 0.00379 µM, respectively.

For the compound `Cc1ccc(S(=O)(=O)O)cc1.Cn1cc(-c2ccc(F)c(C(F)(F)F)c2)nc1C1CCN(c2ncnc3[nH]ncc23)CC1` [Example 57, 4-{4-[4-(4-Fluoro-3-trifluoromethyl-phenyl)-1-methyl-1H-imidazol-2-yl]-piperidin-1-yl}-1H-pyrazolo[3,4-d]pyrimidine p-toluenesulfonate], the IC50 in the data set on NCI-H460 was found to be 24 µM; in the data set on PC3 it was 31.9 µM; with A549, 10.3 µM; in the data set with PANC-1 it was 30.2 µM; in the data set with A2780, 25.1 µM; at P70 S6 kinase (T412E), 0.0127 µM. The IC50 was found to be 27.5 µM in the data set with U87MG, 16.5 µM with K562 and 51.6 µM in the data set on Rat 13762. The same compound displayed a bioavailability in “Oral bioavailability” above 100%.

The values above are taken from patent US8093383B2, “P70 S6 kinase inhibitors” (Eli Lilly and Company, priority 2007, dated 2012).
